11 compounds from patent US12152019B2, “Arylalkyl pyrazole compounds as indoleamine 2,3-dioxygenase inhibitors” (Merck Sharp & Dohme LLC, priority 2018, dated 2024) can be followed below.

IDO1, sequence (P14902 whole entry): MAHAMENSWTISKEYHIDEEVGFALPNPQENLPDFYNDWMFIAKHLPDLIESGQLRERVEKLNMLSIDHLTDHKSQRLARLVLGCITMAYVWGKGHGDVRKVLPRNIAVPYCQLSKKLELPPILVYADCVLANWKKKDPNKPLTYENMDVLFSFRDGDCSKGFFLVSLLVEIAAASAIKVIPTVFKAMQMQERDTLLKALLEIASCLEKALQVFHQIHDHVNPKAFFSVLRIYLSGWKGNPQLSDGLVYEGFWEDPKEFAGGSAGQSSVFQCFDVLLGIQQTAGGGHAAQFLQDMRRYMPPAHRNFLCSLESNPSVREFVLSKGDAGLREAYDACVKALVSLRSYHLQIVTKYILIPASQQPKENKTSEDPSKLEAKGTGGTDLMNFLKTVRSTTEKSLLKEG

The assay concerns the target IDO1 (Homo sapiens, UniProt P14902). The assay is described as follows: IDO1 Human Whole Blood Assay. It is filed as cell-based. The following applies: LPS and IFNγ 100 ng/mL, overnight (18 h), kynurenine by LC/MS/MS, read-out: Human Whole Blood Potency, IC50. The protocol: IDO1 Human Whole Blood Assay Compounds to be tested were serially diluted in ten 3-fold steps in DMSO starting from 10 mM. 3 μL of compound dilutions or DMSO alone were then dispensed from the dilution plate into a polypropylene 96-well assay plate containing 97 μL of RPMI using an Echo 555 acoustic liquid handler (Labcyte). LPS and IFNγ was prepared in RPMI to a 10× of final conc. (1000 ng/mL), final concentration is 100 ng/mL. […] 240 μL of blood was transferred to each of the wells of a v-bottom 96 well plate. 30 μL of compound was transferred from intermediate dilution plate, and incubated for 15 min. 30 μL from stimulants was then transferred to blood and mixed thoroughly. Plate was covered with breathable membrane and incubated at 37° C. for overnight (18 h). […] Plasma was diluted with RPMI in 1:1 ratio and proteins were precipitated out with two volume of Acetonitrile. The plates were centrifuged at 4000×G for 60 min. 20 μL of supernatant was carefully transferred to a 384 well plate contain 40 μL of 0.1% formic acid in water and analyzed by LC/MS/MS. LC/MS/MS analyses were performed using Thermo Fisher's LX4-TSQ Quantum Ultra system. This system consists of four Agilent binary high-performance liquid chromatography (HPLC) pumps and a TSQ Quantum Ultra triple quadrupole MS/MS instrument. For each sample, 5 μL were injected onto an Atlantis T3 column (2.1 mm×150 mm, 3 μm particle size) from Waters. The mobile phase gradient pumped at 0.8 mL/min was used to elute the analytes from the column at 25° C. The elution started at 0% B increasing linearly to 25% B at 6.5 min, holding at 25% for 1 min, re-equilibrating to 10 min. Mobile phase A consisted of 0.1% formic acid in water. Mobile phase B consisted of 0.1% of formic acid in acetonitrile. Data was acquired in positive mode using a HESI interface. The operational parameters for the TSQ Quantum Ultra instrument were a spray voltage of 4000 V, capillary temperature of 380° C., vaporizer temperature 400° C., shealth gas 60 arbitrary units, Aux gas 20 arbitrary units, tube lens 85 and collision gas 1.2 mTorr. SRM chromatograms of kynurenine (Q1: 209.2>Q3:94.0) and internal standard (Q1: 215.3>Q3:98.2) were collected for 90 sec. The peak area was integrated by Xcalibur Quan software. […] Compounds were titrated and IC50's were calculated by 4 parameter sigmoidal curve fitting formula.
The term IC50 denotes the concentration at which inhibition is half-maximal. In the case of `Cc1cccc(N2CCC(C(F)Cn3nc(C(=O)N4C[C@@H](C)O[C@@H](C)C4)c4c3CCC4)CC2)c1C` (single isomer, unassigned) [Example 48], the IC50 is 964 nM.
Then `Cc1c(F)ccc(C2CCC(CCn3nc(C(=O)N4CCN(C(=O)CO)CC4)c4c3CCC4)CC2)c1C` (single isomer, unassigned) [Example 49, 1-(4-(1-(2-(4-(4-fluoro-2,3-dimethylphenyl)cyclohexyl)ethyl)-1,4,5,6-tetrahydrocyclopenta[c]pyrazole-3-carbonyl)piperazin-1-yl)-2-hydroxyethan-1-one], with 177 nM; and `Cc1c(F)ccc(C2CCC(CCn3nc(C(=O)N4CCC(F)(CO)CC4)c4c3CCC4)CC2)c1C` (single isomer, unassigned) [Example 52, (1-(2-(4-(4-fluoro-2,3-dimethylphenyl)cyclohexyl)ethyl)-1,4,5,6-tetrahydrocyclopenta[c]pyrazol-3-yl)(4-fluoro-4-(hydroxymethyl)piperidin-1-yl)methanone], with 448 nM.
Consider `Cc1cccc(C2CCC(CCn3nc(C(=O)N4CCC(O)CC4)c4c3CCC4)CC2)c1C` (single isomer, unassigned) [Example 95, (1-(2-(4-(2,3-dimethylphenyl)cyclohexyl)ethyl)-1,4,5,6-tetrahydrocyclopenta[c]pyrazol-3-yl)(4-hydroxypiperidin-1-yl)methanone], for which the IC50 came out at 166 nM.
For `Cc1cccc(C2CCC(CCn3nc(C(=O)N4CCC(O)CC4)c4c3CCC4)CC2)c1C` (single isomer, unassigned) [Example 96, (1-(2-(4-(2,3-dimethylphenyl)cyclohexyl)ethyl)-1,4,5,6-tetrahydrocyclopenta[c]pyrazol-3-yl)(4-hydroxypiperidin-1-yl)methanone], the IC50 was determined as 328 nM.
`Cc1cccc(N2CCC(CCn3nc(C(=O)N4CCC(O)CC4)c4c3CCC4)CC2)c1C` [Example 1, (1-(2-(1-(2,3-dimethylphenyl)piperidin-4-yl)ethyl)-1,4,5,6-tetrahydrocyclopenta[c]pyrazol-3-yl)(4-hydroxypiperidin-1-yl)methanone]: the IC50 stood at 341 nM.
For `Cc1c(F)ccc(N2CCC(CCn3nc(C(=O)N4CCC(F)(CO)CC4)c4c3CCC4)CC2)c1C` [Example 8, (1-(2-(1-(4-fluoro-2,3-dimethylphenyl)piperidin-4-yl)ethyl)-1,4,5,6-tetrahydrocyclopenta[c]pyrazol-3-yl)(4-fluoro-4-(hydroxymethyl)piperidin-1-yl)methanone], the IC50 was 251 nM.
For `Cc1c(F)ccc(N2CCC(CCn3nc(C(=O)N4CCN(C(=O)CO)CC4)c4c3CCC4)CC2)c1C` [Example 11, 1-[4-[1-[2-[1-(4-fluoro-2,3-dimethyl-phenyl)piperidin-1-ium-4-yl]ethyl]-5,6-dihydro-4H-cyclopenta[c]pyrazole-3-carbonyl]piperazin-1-yl]-2-hydroxy-ethanone] the value was 800 nM.
`CC(=O)NC1CCN(C(=O)c2nn(CCC3CCN(c4ccc(F)c(F)c4C)CC3)c3c2CCCC3)CC1` [Example 18, N-[1-[1-[2-[1-(3,4-difluoro-2-methyl-phenyl)-4-piperidyl]ethyl]-4,5,6,7-tetrahydroindazole-3-carbonyl]-4-piperidyl]acetamide]: the 50% inhibitory concentration (IC50) was 437 nM.
On to `CC(=O)NC1CCN(C(=O)c2nn(CCC3CCN(c4cccc(Cl)c4C)CC3)c3c2CCCC3)CC1` [Example 20, N-[1-[1-[2-[1-(3-chloro-2-methyl-phenyl)-4-piperidyl]ethyl]-4,5,6,7-tetrahydroindazole-3-carbonyl]-4-piperidyl]acetamide], for which the IC50 amounted to 286 nM.
Consider `CC(=O)NC1CCN(C(=O)c2nn(CCC3CCN(c4nccc(C(F)(F)F)c4F)CC3)c3c2CCCC3)CC1` [Example 35, N-[1-[1-[2-[1-[3-fluoro-4-(trifluoromethyl)-2-pyridyl]-4-piperidyl]ethyl]-4,5,6,7-tetrahydroindazole-3-carbonyl]-4-piperidyl]acetamide], for which the IC50 turned out to be 935 nM.
